According to PubChem BioAssay (NCI):
Where “and” joins values, the source holds several entries; their conditions need not be identical. Equal values may be shown once.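 Cells were grown in 96-well plates and exposed to each compound for 48 hours at five concentrations; endpoints were interpolated linearly between bracketing concentrations, or set to the highest concentration if not reached. The concentration for 50% growth inhibition is given as GI50. TGI marks complete inhibition of growth.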

System: A549 NSCLC
Assay: NCI tumour cell line growth inhibition, 48 h

SMILES | GI50 [µM] | TGI [µM]
C[C@]12CCc3sc(NCCc4ccccc4)nc3C1=CC[C@@H]1[C@@H]2CC[C@]2(C)C(=O)CC[C@@H]12 | 7 | > 100
COc1cccc(C2=C(c3c(C)n(C)c4ccccc34)C(=O)NC2=O)c1 | 16.4 | > 25
CCN(Cc1ccc(F)cc1)c1ccc(CO)c(F)c1 | 10.5 | > 66.1
O=C(Cn1c(=O)c(-c2ccccc2)nc2ccccc21)Nc1ccc(F)cc1 | 94.8 | > 100
CN(C)CCNC(=O)c1cc([N+](=O)[O-])cc2c1Oc1ccccc1O2 |  | > 100
O=C1C(N2CC2)=C(N2CC2)C(=O)C(N2CC2)=C1N1CC1 | 0.059 | 0.428
O=C(O)C1OC1(c1cccc(Cl)c1)c1ccccc1Cl (stereo unspecified) |  | > 100
CCCCC[C@H]1C/C=C2/C(=O)C=C[C@@H]2C/C=C\CCCC(=O)O[C@@H](CCCCC)C/C=C2/C(=O)C=C[C@@H]2C/C=C\CCCC(=O)O1 | 0.528 | 1.35
O=C(Nc1cccc(-n2cc(-c3ccncc3)c(-c3cc(O)cc(Cl)c3)n2)c1)Nc1ccc(Cl)c(C(F)(F)F)c1 | 2.33 | 9.2
CNCCCn1c2c(c3ccc([N+](=O)[O-])cc3c1=O)C(=O)c1cc(OC)cnc1-2 | 0.0696 | 0.359
Cc1cc(Cl)ccc1Nc1nc(C(F)(F)F)ccc1C(=O)N/N=C/c1ccc(Cl)cc1 | 3.02 | 27.9
COc1cc2oc3cc(=O)cc4oc(-c5ccccc5)cc(c2c2c1CCC(c1ccccc1)O2)c43 (stereo unspecified) |  | > 100
c1cc2n(n1)CCN2 |  | 8580
COc1cc(Nc2c(C#N)cnc3cc(OCCCN4CCN(C)CC4)c(OC)cc23)c(Cl)cc1Cl | 2.74 | 13.5
O=CN/C=C/c1cccc(O)c1 |  | 79.7
Nc1ccc2c(SCc3ccc([N+](=O)[O-])cc3)c3ccccc3nc2c1 |  | 48.9
O=c1ccn(C2CC(O)C(CO)O2)c(=O)[nH]1 (stereo unspecified) | > 5000 | > 5000
O=C(N/C(=C/c1ccc(Cl)cc1Cl)c1nc2ccccc2s1)c1ccccc1 |  | 53.8
CCOC(=O)c1cc2c(n1Cc1cccc(OC)c1)-c1oncc1CCC2 | 0.915 | > 100
COc1c(O)cc2oc(-c3ccc(O)cc3)cc(=O)c2c1O |  | > 100
COc1cccc(-c2nn(-c3ccccc3)cc2-c2ccnc(NCCCNC(=O)Nc3ccc(Cl)c(Cl)c3)c2)c1 | 3.79 | 13.4
COc1cc2ccccc2oc1=O |  | > 100
Nc1nc(N)c2nc(CNc3ccc(C(=O)NC(CC(=O)O)C(=O)O)cc3)cnc2n1 (stereo unspecified) | 0.569 | > 100
COc1cc2c3c(n(CCCCN)c(=O)c2cc1OC)-c1cc2c(cc1C3=O)OCO2 | 1.06 | 11.9
N#CCCN(CCCN(CCCN(C(=O)Nc1ccccc1)c1ccccc1)C(=O)Nc1ccccc1)C(=O)Nc1ccccc1 | > 100 | > 100
COc1cccc2c1ccc1nc3cccc(C(=O)N[C@H](C)CN(C)C)c3nc12 | 0.0402 | 1.99
NC(=O)c1ccc(I)c(N=O)c1 | 42.1 | > 100
COc1ccc2c(=O)cc(-c3ccncc3)oc2c1OC |  | > 100

System: HL-60(TB) leukemia
Assay: NCI tumour cell line growth inhibition, 48 h

SMILES | GI50 [µM] | TGI
C[C@]12CCc3sc(NCCc4ccccc4)nc3C1=CC[C@@H]1[C@@H]2CC[C@]2(C)C(=O)CC[C@@H]12 | 2.93 | 9.1 µM
COc1cccc(C2=C(c3c(C)n(C)c4ccccc34)C(=O)NC2=O)c1 | > 17.1 | > 25 µM
CCN(Cc1ccc(F)cc1)c1ccc(CO)c(F)c1 | 12.8 | 37.3 µM
O=C(Cn1c(=O)c(-c2ccccc2)nc2ccccc21)Nc1ccc(F)cc1 | 14.1 | 48 µM
CN(C)CCNC(=O)c1cc([N+](=O)[O-])cc2c1Oc1ccccc1O2 |  | > 100 µM
O=C1C(N2CC2)=C(N2CC2)C(=O)C(N2CC2)=C1N1CC1 | 0.201 | 8.64 µM
O=C(O)C1OC1(c1cccc(Cl)c1)c1ccccc1Cl (stereo unspecified) |  | 55.2 µM
CCCCC[C@H]1C/C=C2/C(=O)C=C[C@@H]2C/C=C\CCCC(=O)O[C@@H](CCCCC)C/C=C2/C(=O)C=C[C@@H]2C/C=C\CCCC(=O)O1 | 0.136 | 0.704 µM
O=C(Nc1cccc(-n2cc(-c3ccncc3)c(-c3cc(O)cc(Cl)c3)n2)c1)Nc1ccc(Cl)c(C(F)(F)F)c1 | 2.86 | 6.62 µM
CNCCCn1c2c(c3ccc([N+](=O)[O-])cc3c1=O)C(=O)c1cc(OC)cnc1-2 | 0.0413 | 0.921 µM
Cc1cc(Cl)ccc1Nc1nc(C(F)(F)F)ccc1C(=O)N/N=C/c1ccc(Cl)cc1 | 2.1 | 4.63 µM
COc1cc2oc3cc(=O)cc4oc(-c5ccccc5)cc(c2c2c1CCC(c1ccccc1)O2)c43 (stereo unspecified) |  | 62.7 µM
c1cc2n(n1)CCN2 |  | 5150 µM
COc1cc(Nc2c(C#N)cnc3cc(OCCCN4CCN(C)CC4)c(OC)cc23)c(Cl)cc1Cl | 1.59 | 3.63 µM
O=CN/C=C/c1cccc(O)c1 |  | > 100 µM
Nc1ccc2c(SCc3ccc([N+](=O)[O-])cc3)c3ccccc3nc2c1 |  | 10.1 µM
O=c1ccn(C2CC(O)C(CO)O2)c(=O)[nH]1 (stereo unspecified) | > 5000 | > 5000 µM
O=C(N/C(=C/c1ccc(Cl)cc1Cl)c1nc2ccccc2s1)c1ccccc1 |  | > 100 µM
CCOC(=O)c1cc2c(n1Cc1cccc(OC)c1)-c1oncc1CCC2 | 1.19 | > 58.4 µM
COc1c(O)cc2oc(-c3ccc(O)cc3)cc(=O)c2c1O |  | > 100 µM
COc1cccc(-c2nn(-c3ccccc3)cc2-c2ccnc(NCCCNC(=O)Nc3ccc(Cl)c(Cl)c3)c2)c1 | 2.51 | 5.81 µM
COc1cc2ccccc2oc1=O |  | > 100 µM
Nc1nc(N)c2nc(CNc3ccc(C(=O)NC(CC(=O)O)C(=O)O)cc3)cnc2n1 (stereo unspecified) | 0.756 | > 100 µM
COc1cc2c3c(n(CCCCN)c(=O)c2cc1OC)-c1cc2c(cc1C3=O)OCO2 | 1.88 | 15.4 µM
N#CCCN(CCCN(CCCN(C(=O)Nc1ccccc1)c1ccccc1)C(=O)Nc1ccccc1)C(=O)Nc1ccccc1 | 5.2 | > 8.75 µM and 15.6 µM
NC(=O)c1ccccc1Nc1ccc2nnc(-c3ccncc3)n2n1 | 14.3 | 39.6 µM
COc1cccc2c1ccc1nc3cccc(C(=O)N[C@H](C)CN(C)C)c3nc12 | 0.32 | 1.98 µM
NC(=O)c1ccc(I)c(N=O)c1 | 29 | 85.5 µM
COc1ccc2c(=O)cc(-c3ccncc3)oc2c1OC |  | 50.6 µM

System: KM12 colon
Assay: NCI tumour cell line growth inhibition, 48 h

SMILES | GI50 [µM] | TGI [µM]
C[C@]12CCc3sc(NCCc4ccccc4)nc3C1=CC[C@@H]1[C@@H]2CC[C@]2(C)C(=O)CC[C@@H]12 | 3.6 | > 100
COc1cccc(C2=C(c3c(C)n(C)c4ccccc34)C(=O)NC2=O)c1 | 15.5 | > 25
CCN(Cc1ccc(F)cc1)c1ccc(CO)c(F)c1 | 22.9 | > 71.8
O=C(Cn1c(=O)c(-c2ccccc2)nc2ccccc21)Nc1ccc(F)cc1 | > 100 | > 100
CN(C)CCNC(=O)c1cc([N+](=O)[O-])cc2c1Oc1ccccc1O2 |  | > 100
O=C1C(N2CC2)=C(N2CC2)C(=O)C(N2CC2)=C1N1CC1 | 0.696 | 2.72
O=C(O)C1OC1(c1cccc(Cl)c1)c1ccccc1Cl (stereo unspecified) |  | > 100
CCCCC[C@H]1C/C=C2/C(=O)C=C[C@@H]2C/C=C\CCCC(=O)O[C@@H](CCCCC)C/C=C2/C(=O)C=C[C@@H]2C/C=C\CCCC(=O)O1 | 0.382 | 0.786
O=C(Nc1cccc(-n2cc(-c3ccncc3)c(-c3cc(O)cc(Cl)c3)n2)c1)Nc1ccc(Cl)c(C(F)(F)F)c1 | 2.59 | 9.86
CNCCCn1c2c(c3ccc([N+](=O)[O-])cc3c1=O)C(=O)c1cc(OC)cnc1-2 | 0.162 | 0.593
Cc1cc(Cl)ccc1Nc1nc(C(F)(F)F)ccc1C(=O)N/N=C/c1ccc(Cl)cc1 | 2.08 | 7.24
COc1cc2oc3cc(=O)cc4oc(-c5ccccc5)cc(c2c2c1CCC(c1ccccc1)O2)c43 (stereo unspecified) |  | 65.5
c1cc2n(n1)CCN2 |  | > 10000
